Measured values reported in patent US7618975B2, “4-arylamino-quinazolines and analogs as activators of caspases and inducers of apoptosis and the use thereof” (Myriad Pharmaceuticals, Inc., priority 2003, dated 2009).
Counter-ions that a name gives are not always drawn.

Legend:
T-47D cells = test: Caspase cascade activation (N-(Ac-DEVD)-N′-ethoxycarbonyl-R110 fluorogenic substrate) in T-47D cells; assay type: cell-based, Human; settings: T-47D; for Caspase activity Ratio T-47D (24 hr) / Caspase activity Ratio T-47D (48 hr): ratio of net RFU to control
[1] = tested on: tubulin (Cytoskeleton #ML113, MAP-rich); test: Inhibition of tubulin polymerization (DAPI fluorescence); assay type: biochemical; settings: 30 minutes preincubation, 30 minutes at 37° C.
Method: Lyophilized tubulin (Cytoskeleton #ML113, 1 mg, MAP-rich) was assayed for the effect of the test compound on tubulin polymerization as measured by change in fluorescence for 4′,6-diamidino-2-phenylindole (DAPI) (Barron, D. M. et al. Analytical Biochem., 2003, 315, 49-56.). 1 μl of serial dilutions of each test compound (from 100×DMSO stock) was added in 96 well plate format and preincubated for 30 minutes with 94 ul of the non-GTP supplemented tubulin supernatant. 5 μl of DAPI/GTP solution was added to initiate polymerization and incubated for 30 minutes at 37° C. Fluorescence was read with excitation 350 nm, emission wavelength 485 nm on a Tecan Spectraflour Plus. Polymerized tubulin (DMSO and with the tubulin stabilizer Taxol® (paclitaxel)) gives a higher DAPI fluorescence as compared to non-polymerized tubulin (vinblastine and colchicine used to determine baseline).

Topoisomerase II = Topoisomerase II (Homo sapiens, UniProt P11388); test: Topoisomerase II activity assay (relaxation of supercoiled DNA, gel); settings: FIG. 1, Example 1 Compound at 100 μM
Chain of Topoisomerase II (P11388 whole entry): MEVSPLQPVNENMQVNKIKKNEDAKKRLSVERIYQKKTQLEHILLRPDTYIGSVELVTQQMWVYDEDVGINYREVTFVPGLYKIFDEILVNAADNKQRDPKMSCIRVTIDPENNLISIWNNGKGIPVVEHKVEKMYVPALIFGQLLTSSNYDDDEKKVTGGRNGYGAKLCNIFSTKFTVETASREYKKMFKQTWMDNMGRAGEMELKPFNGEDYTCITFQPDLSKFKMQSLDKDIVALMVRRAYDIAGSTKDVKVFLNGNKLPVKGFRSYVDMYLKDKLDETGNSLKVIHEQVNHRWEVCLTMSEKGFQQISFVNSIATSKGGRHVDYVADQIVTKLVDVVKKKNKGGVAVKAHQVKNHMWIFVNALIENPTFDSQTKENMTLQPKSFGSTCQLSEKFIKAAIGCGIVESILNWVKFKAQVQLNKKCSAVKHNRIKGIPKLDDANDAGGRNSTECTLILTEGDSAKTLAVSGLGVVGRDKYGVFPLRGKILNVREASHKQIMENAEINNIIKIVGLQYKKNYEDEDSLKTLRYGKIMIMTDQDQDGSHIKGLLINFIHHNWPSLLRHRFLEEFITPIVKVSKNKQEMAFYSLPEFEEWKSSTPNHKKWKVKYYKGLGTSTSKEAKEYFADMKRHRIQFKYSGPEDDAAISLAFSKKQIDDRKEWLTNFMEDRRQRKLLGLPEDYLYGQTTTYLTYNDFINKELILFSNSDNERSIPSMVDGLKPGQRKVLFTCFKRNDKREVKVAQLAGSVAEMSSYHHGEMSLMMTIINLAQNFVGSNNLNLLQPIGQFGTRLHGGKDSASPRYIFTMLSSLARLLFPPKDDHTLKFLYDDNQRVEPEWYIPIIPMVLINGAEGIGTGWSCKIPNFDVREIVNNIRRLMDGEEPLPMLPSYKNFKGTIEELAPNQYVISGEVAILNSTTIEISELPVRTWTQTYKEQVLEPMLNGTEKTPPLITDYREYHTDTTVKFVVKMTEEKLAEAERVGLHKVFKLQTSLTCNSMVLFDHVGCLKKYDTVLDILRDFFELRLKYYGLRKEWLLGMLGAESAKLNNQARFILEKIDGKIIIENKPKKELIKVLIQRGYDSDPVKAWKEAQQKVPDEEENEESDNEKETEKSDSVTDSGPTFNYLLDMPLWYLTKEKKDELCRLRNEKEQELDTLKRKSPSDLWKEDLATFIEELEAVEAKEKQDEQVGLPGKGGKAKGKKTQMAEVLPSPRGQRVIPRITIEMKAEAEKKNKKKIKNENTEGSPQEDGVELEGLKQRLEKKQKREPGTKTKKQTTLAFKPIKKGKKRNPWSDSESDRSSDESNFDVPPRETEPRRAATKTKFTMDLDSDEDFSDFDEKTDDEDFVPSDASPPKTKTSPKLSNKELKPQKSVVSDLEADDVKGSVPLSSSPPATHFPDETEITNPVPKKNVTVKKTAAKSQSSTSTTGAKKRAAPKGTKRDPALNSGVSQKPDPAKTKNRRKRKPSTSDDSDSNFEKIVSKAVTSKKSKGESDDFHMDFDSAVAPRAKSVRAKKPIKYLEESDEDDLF

Topoisomerase I = target: T1, Topoisomerase I (Homo sapiens, UniProt P11387); test: Topoisomerase I activity assay (relaxation of supercoiled DNA, gel); settings: FIG. 2
T1 sequence (P11387 1-765): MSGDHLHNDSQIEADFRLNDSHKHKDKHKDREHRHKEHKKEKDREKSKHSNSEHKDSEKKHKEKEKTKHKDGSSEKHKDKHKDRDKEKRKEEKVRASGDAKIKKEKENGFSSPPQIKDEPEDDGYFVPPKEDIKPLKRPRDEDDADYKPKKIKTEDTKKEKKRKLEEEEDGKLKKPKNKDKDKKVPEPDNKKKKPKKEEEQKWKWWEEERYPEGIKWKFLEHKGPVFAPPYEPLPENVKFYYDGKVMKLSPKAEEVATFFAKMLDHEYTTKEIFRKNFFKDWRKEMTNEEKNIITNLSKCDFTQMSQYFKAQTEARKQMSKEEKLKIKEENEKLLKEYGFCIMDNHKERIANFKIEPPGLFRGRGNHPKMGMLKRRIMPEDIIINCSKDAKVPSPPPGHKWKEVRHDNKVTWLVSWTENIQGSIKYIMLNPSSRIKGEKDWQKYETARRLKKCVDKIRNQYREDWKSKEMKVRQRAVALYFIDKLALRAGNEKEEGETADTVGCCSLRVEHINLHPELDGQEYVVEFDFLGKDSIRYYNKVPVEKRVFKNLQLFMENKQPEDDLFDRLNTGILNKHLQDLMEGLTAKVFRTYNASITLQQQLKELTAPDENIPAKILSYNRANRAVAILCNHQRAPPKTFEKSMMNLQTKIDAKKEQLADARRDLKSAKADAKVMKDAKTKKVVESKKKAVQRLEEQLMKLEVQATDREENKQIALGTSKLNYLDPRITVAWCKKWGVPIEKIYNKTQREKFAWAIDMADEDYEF

[2] = target: T2, Human Type II Topoisomerase (p170 Form) (Homo sapiens, UniProt P11388); test: Photo-crosslinking of radiolabeled compound to Topoisomerase II; assay type: binding; settings: 50 nM, 60 minutes, UV 254 nm; FIG. 3
T2 construct: purchased TopoGEN, Inc., Columbus, Ohio
T2 sequence (P11388 whole entry): as the sequence (P11388 whole entry) above
Method: 30 Units (15 ul) Human Type II Topoisomerase (p170 Form) (from TopoGEN, Inc., Columbus, Ohio) was incubated with 50 nM radiolabeled Example 102 compound for 60 minutes at room temperature.
(Radiolabeled Example 102 compound stock is 16.67 uM, 60 Ci/mmol, 1 Ci/ml American Radiolabeled Chemicals, Inc., St. Louis, Mo. Samples were either UV irradiated (+) with a short wavelength UV Source (254 nm) for 10 minutes at a distance of 3.5 cm or not irradiated (−). 8 ul of 5× sample buffer (150 mM Tris, pH 6.8, 50% glycerol, 1% SDS, 50 mM dithiothreitol, 62 mg/ml bromophenol blue) was added to the samples and boiled for 5 minutes. The entire sample was then loaded onto a 6% Tris-Glycine SDS-gel (10 well, 1.5 mm thickness) (Invitrogen, Carlsbad, Calif.). The gel was stained with 1% Coomassie Brilliant Blue in 40% methanol, 7.5% acetic acid for 2 hours then de-stained in several changes of de-stainer (40% methanol, 7.5% acetic acid). The gel was then incubated in Amplify (Amersham, Piscataway, N.J.) for 30 minutes at room temperature and then dried down on Whatman filter paper at 80° C. for 2 hours on a gel dryer. The dried gel was put on Hyperfilm (Amersham) in a film cassette and placed at −80° C. for 5-7 days.

Row | Compound | IC50 [1] [µM] | Caspase activity Ratio T-47D (24 hr) (T-47D cells) | Caspase activity Ratio T-47D (48 hr) (T-47D cells; 48 hr) | further results
1 | Cc1ccc(N(C)c2nc(Cl)nc3ccccc23)cc1 [Example 2, (2-Chloro-quinazolin-4-yl)-(4-methyl-phenyl)-methyl-amine] | 3 | 6.7 |  | 
2 | COc1ccc(N(C)c2nc(C)nc3ccccc23)cc1 [Example 72, (4-Methoxy-phenyl)-methyl-(2-methyl-quinazolin-4-yl)-amine hydrochloride] | < 1 | 9.0 | 7.4 | 
3 | COc1ccc(N(C)c2nc(N)nc3ccccc23)cc1 [Example 12, N^4-(4-Methoxy-phenyl)-N^4-methyl-quinazoline-2,4-diamine] | 2 | 5.3 | 12.8 | 
4 | COc1ccc(N(C)c2nc(Cl)nc3ccccc23)cc1 [Example 1] | < 0.5 | 8.7 |  | Inhibition of topoisomerase II-dependent relaxation of supercoiled DNA (Topoisomerase II): inhibition of DNA relaxation is substantial; Effect on topoisomerase I-dependent relaxation of supercoiled DNA (Topoisomerase I): no apparent effect
5 | COc1cc([C@@H]2c3cc4c(cc3[C@@H](O[C@@H]3O[C@@H]5CO[C@@H](C)O[C@H]5[C@H](O)[C@H]3O)[C@H]3COC(=O)[C@H]23)OCO4)cc(OC)c1O [VP-16, etoposide, reference compound] |  |  |  | Effect on topoisomerase I-dependent relaxation of supercoiled DNA (Topoisomerase I): no apparent effect
6 | Radiolabeled (4-Azido-phenyl)-(2-methyl-quinazolin-4-yl)-methyl-amine [Radiolabeled Example 102 compound] |  |  |  | Binding to Topoisomerase II (UV crosslinking) [2]: binds sufficiently well to Topoisomerase II to crosslink to the enzyme when photoactivated
7 | CN(c1ccccc1)c1nc(Cl)nc2ccccc12 [Example 6, (2-Chloro-quinazolin-4-yl)-phenyl-methyl-amine] | 4 | 6.7 |  | 
8 | COc1ccc(N(C)c2nc(Cl)nc3c(Cl)cccc23)cc1 [Example 89, (2,8-Dichloro-quinazolin-4-yl)-(4-methoxy-phenyl)-methyl-amine] |  |  | 7.8 | 
9 | COc1ccc(N(c2nc(Cl)nc3ccccc23)C(C)C)cc1 [Example 37, (2-Chloro-quinazolin-4-yl)-isopropyl-(4-methoxy-phenyl)-amine] |  | 3.3 |  | 
10 | COc1ccc(N(C)c2nc(NCCN3CCOCC3)nc3ccccc23)cc1 [Example 14, N^4-(4-Methoxy-phenyl)-N^4-methyl-N^2-(2-morpholin-4-yl-ethyl)-quinazoline-2,4-diamine] |  | 9.7 | 12.3 | 
11 | CN(c1ccc2c(c1)OCO2)c1nc(Cl)nc2ccccc12 [Example 67, (2-Chloro-quinazolin-4-yl)-(3,4-methylenedioxyphenyl)-methyl-amine] |  |  | 12.5 | 
12 | COc1ccc(N(C)c2nc(CF)nc3ccccc23)cc1 [Example 55, (2-Fluoromethyl-quinazolin-4-yl)-(4-methoxy-phenyl)-methyl-amine] |  |  | 9.0 | 
13 | COc1ccc(N(C)c2nc(CN(C)C)nc3ccccc23)cc1 [Example 77, (2-Dimethylaminomethyl-quinazolin-4-yl)-(4-methoxy-phenyl)-methyl-amine] |  | 5.7 | 12.3 | 
14 | CN(NC(=O)c1ccccc1F)c1nc(C(F)(F)F)nc2ccccc12 [2-fluoro-N′-(2-(trifluoromethyl)quinazolin-4-yl)-N′-methylbenzohydrazide] |  |  |  | Ratio T-47D (48 hr) (T-47D cells; 48 hr, benzohydrazide analogs table): 13.7
15 | COc1ccc(N(C)c2nc(NCCO)nc3cc(OC)c(OC)cc23)cc1 [Example 50, N^2-(2-Hydroxyethyl)-N^4-(4-methoxy-phenyl)-N^4-methyl-6,7-dimethoxyquinazoline-2,4-diamine] |  |  | 1.0 | 
16 | COc1ccc(Nc2nc(Cl)nc3ccccc23)cc1 [Example 7, (2-Chloro-quinazolin-4-yl)-(4-methoxy-phenyl)-amine] | > 50 | 1.2 | 1.0 | 
17 | COc1ccc(N(C)c2nc(C)nc3ccc([N+](=O)[O-])cc23)cc1 [Example 109, (4-Methoxy-phenyl)-(2-methyl-6-nitro-quinazolin-4-yl)-methyl-amine] |  | 4.6 |  | 

Second part, led by results:

Row | IC50 [1] [µM] | Compound | Caspase activity Ratio T-47D (24 hr) (T-47D cells) | Caspase activity Ratio T-47D (48 hr) (T-47D cells; 48 hr) | further results
18 | 4 | Cc1ccc(N(C)c2ncnc3ccccc23)cc1 [Example 35, (4-Methyl-phenyl)-methyl-quinazolin-4-yl-amine] | 7.2 |  | 
19 | 10 | COc1ccc(N(C)c2nccc3ccccc23)cc1 [Example 65, (Isoquinolin-1-yl)-(4-methoxy-phenyl)-methyl-amine] |  | 13.7 | 
20 | < 1 | COc1ccc(N(C)c2nc(Cl)nc3ccccc23)cn1 [Example 36, (2-Chloro-quinazolin-4-yl)-(6-methoxy-pyridin-3-yl)-methyl-amine] | 6.7 |  | 
21 | 10 | COc1ccc(OC)c(Nc2nc(Cl)nc3ccccc23)c1 [Example 31, (2-Chloro-quinazolin-4-yl)-(2,5-dimethoxy-phenyl)-amine] | 8.0 | 14.7 | 
22 | 6 | COc1ccc(N(C)c2nc(NC/C=C(\C)CCC=C(C)C)nc3ccccc23)cc1 [Example 13, N^2-(3,7-Dimethyl-octa-2,6-dienyl)-N^4-(4-methoxy-phenyl)-N^4-methyl-quinazoline-2,4-diamine] | 8.9 |  | 
23 | 3 | COc1ccc(N(C)c2nc(Cl)nc3cc(OC)c(OC)cc23)cc1 [Example 20, (2-Chloro-6,7-dimethoxyquinazolin-4-yl)-(4-methoxy-phenyl)-methyl-amine] | 13.1 |  | 
24 | 2 | COc1cccc(N(C)c2nc(Cl)nc3ccccc23)c1 [Example 43, (2-Chloro-quinazolin-4-yl)-(3-methoxy-phenyl)-methyl-amine] |  | 14.7 | 
25 | 5 | COc1ccc(OC)c(N(C)c2nc(Cl)nc3ccccc23)c1 [Example 42, (2-Chloro-quinazolin-4-yl)-(2,5-dimethoxy-phenyl)-methyl-amine] | 8.6 | 14.6 | 
26 | 2 | COc1ccc(N(C)c2ncnc3c2CCCC3)cc1 [Example 25] |  | 5.8 | 
27 | 10 | COc1ccccc1N(C)c1nc(Cl)nc2ccccc12 [Example 44, (2-Chloro-quinazolin-4-yl)-(2-methoxy-phenyl)-methyl-amine] |  | 14.3 | 
28 | < 1 | COc1ccc(N(C)c2nc(Cl)nc3ccccc23)c(OC)c1 [Example 41, (2-Chloro-quinazolin-4-yl)-(2,4-dimethoxy-phenyl)-methyl-amine] |  | 12.4 | 
